Source: article PMC6196238, “Novobiocin, a Newly Found TRPV1 Inhibitor, Attenuates the Expression of TRPV1 in Rat Intestine and Intestinal Epithelial Cell Line IEC-6” (Frontiers in Pharmacology, 2018)

Tests used:
IEC-6/TRPV1+ cells = assay: CAP accumulation assay; assay type: cell-based, rat; settings: for accumulation of CAP after inhibitor added at 60 min: CAP alone 60 min, then SB-705498 or NOVO (5 and 10 μM), at 75 min, Figure 3E
Experimental: The transfected cells were grown to 80% confluence in 12-well plates. […] SB-705498, RR or NOVO was then added to the medium for another 15, 30, and 60 min. […] After incubation, the medium was removed, and cell layers were washed three times with ice-cold PBS and then extracted with Membrane Protein Extraction Kit (Thermo Fisher Scientific Inc, Rockford, IL, United States), according to the manufacturer’s protocol. The cytosolic protein extracts were stored at -80°C until LC-MS/MS analysis.
The plasma samples and protein sample with 100 μL were extracted with 400 μL of methanol involving IS (verapamil 50 ng⋅mL^-1) by vortex-mix for 1 min, ultrasonic extraction for 1 h, and then centrifugation for 30 min at 15000 g. The supernatant was transferred into a borosilicate glass and 2 μL was subjected to LC-MS/MS analysis.
The LC-MS/MS system consisted of Agilent 6460 Triple Quadrupole LC/MS systems via an ESI interface. The samples were separated on an Agilent ZORBAX SB-C18 column (3.5 μm, 2.1 mm × 150 mm) and the column temperature was maintained at 30°C. The mobile phase consisted of acetonitrile and water contains 0.1% formic acid (70:30, v/v). The flow rate was 0.2 mL⋅min^-1. The ion source was an electrospray ionization interface in the positive mode. […] Other parameters were as follows: spray voltage, 4.0 kV; capillary temperature, 350°C; gas flow, 10 L⋅min^-1.

[1] = tested on: rat intestine (jejunum, ileum, colon); assay: Ussing chamber intestinal permeability of NOVO; assay type: in vitro ADME; settings: jejunum vs ileum and colon; Figure 1
Experimental: The intestinal permeability of CAP in vitro was performed using Ussing chamber. […] NOVO was also prepared in HEPES buffer to yield final concentration at 5, 10, 25, 50, 100, and 200 μM. Animal intestinal segments for the permeability study were prepared in accordance with the experimental method as described previously ([Yodoya et al., 1994]; [Wallon et al., 2005]; [Duan et al., 2013]). Briefly, male SD rats, weighting 240–260 g, were fasted for 18 h before each experiment and anesthetized by injecting 10 % chloral hydrate anesthesia (i.p.). Different portions of the rat intestine were excised and flushed with HEPES buffer, including jejunum (after the first 5 cm of the top of small intestine), ileum (the distal part of small intestine) and colon (proximal to cecal-colonic junction), and incubated in the ice-cold HEPES buffer. Next, 3–4 cm of the intestine was clipped, and the serosa was removed rapidly on an ice-cold glass. The intestinal segments were fixed in the Ussing chamber. Finally, 7 mL of HEPES buffer was added to the receiving side while an equal volume of drug solution to the dosing side. All the chambers were maintained at 37°C by using a warm water-circulating pump and a mixture of 95% O2 and 5% CO2 aerated to ensure the activity of the membrane. […]

TRPV1 = TRPV1 mRNA and protein expression in rat intestine after oral administration (qRT-PCR, western blot); assay type: in vivo
Experimental: Forty male SD rats (200–250 g) were used for orally administered experiment. The animals were arbitrarily distributed in eight different groups and each group was treated with its respective dose of calculated amount. Group I was orally administered 0.9% normal saline (5 mL⋅kg^-1). Group II labeled as positive control was orally administered with 10 μM RR (5 mL⋅kg^-1). Rats of Group […] were treated with 5 mL⋅kg^-1 of NOVO dissolved in 0.9% normal saline (5, 10, 25, and 50 μM, respectively). The animals were orally administered twice a day for 2 weeks. After another 14 days, animals were sacrificed and then the jejunum, ileum and colon tissue were excised. The intestinal tissues were frozen in liquid nitrogen, and then stored at -80°C for protein or ribonucleic acid (RNA) isolation.
qRT-PCR was performed to evaluate TRPV1 mRNA expression after NOVO treatment. The total RNA of the cells or tissues was isolated with an RNA isolation plus kit (Takara Shuzo, Kyoto, Japan), according to the manufacturer’s protocol. The quality of RNA was confirmed by agarose gel electrophoresis and an optical density measurement of A260/A280. The cDNAs were prepared using SYBR® Premix Ex Taq^TMII (Takara Shuzo, Kyoto, Japan) and the following primers: 5′-[…]-3′ and 5′-[…]-3′ for TRPV1, and 5′-[…]-3′, 5′-[…]-3′ for GAPDH were carried out by using the LightCycler480 System. The relative expression was calculated by the 2^-ΔΔC(t) method ([Livak and Schmittgen, 2001]).
After treatment, the cells or tissues were collected and washed with PBS. Membrane protein extracts were obtained with Membrane Protein Extraction Kit (Thermo Fisher Scientific Inc, United States), according to the manufacturer’s protocol. Protein concentrations were quantified by using the BCA Protein Assay kit (Beyotime, Shanghai, China). Equal amounts of protein were resolved by SDS-PAGE on a 10% polyacrylamide gel and transferred onto a polyvinylidene fluoride membrane. […]

SMILES: O=C(Nc1ccccc1Br)N[C@@H]1CCN(c2ccc(C(F)(F)F)cn2)C1 [SB-705498]
- accumulation of CAP after inhibitor added at 60 min (IEC-6/TRPV1+ cells): decreased immediately

SMILES: CO[C@@H]1[C@@H](OC(N)=O)[C@@H](O)[C@H](Oc2ccc3c(O)c(NC(=O)c4ccc(O)c(CC=C(C)C)c4)c(=O)oc3c2C)OC1(C)C [NOVO, novobiocin]
- permeability of NOVO across intestinal segments [1]: much greater in the jejunum than in the ileum and colon
- TRPV1 protein expression in rat intestine (TRPV1; 5 μM NOVO p.o., western blot): not sufficient to attenuate TRPV1 protein expression
- TRPV1 mRNA level in rat intestine (TRPV1; 14 days p.o. NOVO 5-50 μM twice per day, jejunum, ileum, colon, Figure 2D): decreased markedly
- TRPV1 protein level in rat intestine (TRPV1; 14 days p.o. NOVO twice per day, western blot, Figure 2E): decreased the TRPV1 protein level in a dose-dependent manner
- accumulation of CAP after inhibitor added at 60 min (IEC-6/TRPV1+ cells): decreased immediately
- accumulation of CAP, co-incubation (IEC-6/TRPV1+ cells; CAP in combination with 2.5-10 μM NOVO, vs control, Figure 3C): strong inhibition
- accumulation of CAP in cells after 24 h pre-treatment (IEC-6/TRPV1+ cells; NOVO 2.5-10 μM 24 h prior to 25 μM CAP for 60 min, Figure 3B): positive correlation with a decrease in the accumulation of CAP
